In article PMC3534098 (PLoS ONE, 2012):
Converted amounts (≈) assume the structure as drawn. Like-named read-outs stand apart in the source and are kept apart here.

What was measured:
[1] = system: M. bovis BCG strain Pasteur; test: microbe, parasite or virus in culture; type: cell-based; details: Mycobacterium tuberculosis variant bovis BCG, read-out: MIC M. bovis BCG
M. tuberculosis CDC1551 = test: microbe, parasite or virus in culture; type: cell-based; details: Mycobacterium tuberculosis, CDC1551, read-out: MIC CDC1551
[2] = system: Enterococcus faecium, Enterococcus faecalis, Haemophilus influenzae, Moraxella catarrhalis, Streptococcus pneumoniae, Escherichia coli and Streptococcus …; type: cell-based, Gram-positive and Gram-negative organisms
M. tuberculosis H37Rv [3] = test: microbe, parasite or virus in culture; type: cell-based; details: Mycobacterium tuberculosis, read-out: MIC H37Rv
M. tuberculosis Beijing = test: microbe, parasite or virus in culture; type: cell-based; details: Mycobacterium tuberculosis, read-out: MIC Beijing
[4] = not given; remark: listed apart in the source
in vitro [5] = details: mouse, microsomes, pH 7.4
M. tuberculosis inh233 = test: microbe, parasite or virus in culture; type: cell-based; details: Mycobacterium tuberculosis, INH233, read-out: MIC inh233
[6] = system: L1210, HepG2, NEURO 2A, MDCK and H9C2(2-1)
cytochrome bc 1 complex = biological target: cytochrome bc 1 complex; parameters: method as in PMID 6327677; details: high affinity binding site Qo; cited from earlier work
M. tuberculosis H37Rv [7] = test: Dose response efficacy in acute murine model of TB infection; type: in vivo, B6 mice
Method: (§1) For pharmacokinetic studies C57BL/6 female mice of 18–20 g weight were used. Experimental compounds were administered through oral gavage at 50 mg/kg dose at a concentration of 20 ml/kg. All mice received treatment in the fed state. Peripheral total blood was the compartment chosen for the establishment of compound concentrations. Drugs were administered as 1% methyl cellulose suspensions and the blood sampling scheme was: 15, 30 and 45 minutes, 1, 1.5, 2, 3, 4, 8 and 24 hours. At each time-point, blood from 4 different animals was obtained. LC-MS was used as the analytical method of choice for the establishment of compound concentration in blood with a sensitivity of LLQ = 1–5 ng/ml in […]. The non-compartmental data analysis was performed with WinNonlin 5.0 and supplementary analysis was performed with GraphPad 4 software. Dose-response studies in an acute murine infection TB model were carried out as previously described.
Figure 3 Therapeutic efficacy of anti-tubercular IP 3 against M. tuberculosis H37Rv in vivo. B6 mice were infected by intra-tracheal instillation with 10^5 cfu M. tuberculosis H37Rv per mouse. The mice were treated with the anti-tubercular orally once a day from day 1 to day 8. Efficacy results are expressed as log cfu reduction in the lungs of infected mice and are the mean±SD of five mice. The shaded line indicates the levels of administered mycobacterial inoculum.

[8] = Whole blood pharmacokinetics after oral administration in mice; type: in vivo, C57BL/6 female mice; details: female, mouse, oral 50 mg/kg suspension in 1% aqueous methylcellulose
Method: as §1
Figure 2 Whole blood pharmacokinetic profile and main parameters of IP 3 after oral administration of a 50 mg/kg suspension in 1% aqueous methylcellulose.

in vitro [9] = details: human, microsomes, pH 7.4

Compound | MIC [1] [µM] | Human CLint (human liver microsomes) [ml/min/gprotein] | MIC (M. tuberculosis CDC1551) [µM] | MIC Anti-bacterial panel [2] | MIC (M. tuberculosis H37Rv [3]) [µM] | MIC (M. tuberculosis Beijing) [µM] | Mouse CLint ([4]; mouse liver microsomes) [ml/min/gprotein] | half-life at 0.5 mM (in vitro [5]) [min] | MIC (M. tuberculosis inh233) [µM] | Tox50 Cell lines [6] | Human CLint (human, microsomes) [ml/min/gprotein] | Mouse CLint ([4]; mouse, microsomes) [ml/min/gprotein] | half-life (in vitro [5]) [min] | half-life (in vitro [9]) [min] | also measured
Cc1ccc2nc(C)c(C(=O)NCc3cccs3)n2c1 [IP 1] | 1 (≈ 0.285 µg/mL) | 3.9 | 0.06 (≈ 0.0171 µg/mL) | all>64 µM | 0.2 (≈ 0.0571 µg/mL) | 0.03 (≈ 0.00856 µg/mL) | >30 | < 3 | 0.03 (≈ 0.00856 µg/mL) | all>25 µM | – | – | – | – | –
CO/C(=C/C(N)=O)[C@H](C)[C@H](/C=C/c1csc(-c2csc([C@@H](C)/C=C/C=C/C(C)C)n2)n1)OC [Myxothiazol, myxothiazol] | – | – | – | – | – | – | – | – | – | – | – | – | – | – | Kd (cytochrome bc 1 complex): < 1 nM
Cc1ccc2nc(C)c(C(=O)NCc3ccc(C(F)(F)F)cc3)n2c1 [IP 3, 2,6-Dimethyl-N-(4-(trifluoromethyl)benzyl)imidazo[1,2-a]pyridine-3-carboxamide] | 0.5 (≈ 0.174 µg/mL) | – | – | all>16 µM | 0.03 (≈ 0.0104 µg/mL) | – | – | – | – | all>25 µM | 4.9 | 7 | 11.6 | 15.8 | log cfu reduction with respect to non-treated controls (M. tuberculosis H37Rv [7]; 300 mg/kg orally once a day from day 1 to day 8, lungs of infected mice): 2 log cfu; log cfu reduction with respect to non-treated controls (M. tuberculosis H37Rv [7]; 500 mg/kg orally once a day from day 1 to day 8, lungs of infected mice): 2 log cfu; behavior in vivo (M. tuberculosis H37Rv [7]; acute murine model of TB infection): bacteriostatic; signs of toxicity (M. tuberculosis H37Rv [7]; any of the administered doses, mice): No signs of toxicity; bioavailability ([8]; C57BL/6, whole blood, read-out: F (percentage bioavailability)): 61%; AUC ([8]; C57BL/6, whole blood, read-out: AUC (Area Under the Curve) (0–8 hours)): 4360 ng·h/mL; Cmax ([8]; C57BL/6, whole blood, read-out: Cmax (maximum concentration observed in whole blood)): 3400 ng/mL
Cc1ccc2nc(C)c(C(=O)NCc3ccc(Cl)nc3)n2c1 [IP 4, N-((6-Chloropyridin-3-yl)methyl)-2,6-dimethylimidazo[1,2-a]pyridine-3-carboxamide] | 5 (≈ 1.57 µg/mL) | – | – | all>16 µM | 5 (≈ 1.57 µg/mL) | – | – | – | – | all>50 µM | 2.3 | 7.4 | 11.4 | > 30 | –
Cc1ccc2nc(C(F)(F)F)c(C(=O)NCc3cccc(Cl)c3)n2c1 [IP 2] | – | >30 | 0.06 (≈ 0.0221 µg/mL) | all>16 µM | 0.2 (≈ 0.0736 µg/mL) | 0.06 (≈ 0.0221 µg/mL) | >30 | < 3 | 0.03 (≈ 0.011 µg/mL) | all>50 µM | – | – | – | – | half-life at 0.5 mM (in vitro [9]): < 3 min
